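96-well plates; 48 h exposure; 5 concentrations. Endpoints by linear interpolation between flanking doses. Not reached: highest tested concentration assigned. TGI is the concentration that stops growth completely.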
How the values were obtained:
Experiment in all cases: NCI-60 cell line screen, 48 h
COLO 205 colon = test system: COLO 205 colon
RXF 393 renal = test system: RXF 393 renal
MOLT-4 leukemia = test system: MOLT-4 leukemia
OVCAR-3 ovarian = test system: OVCAR-3 ovarian
HOP-18 NSCLC = test system: HOP-18 NSCLC
LOX IMVI melanoma = test system: LOX IMVI melanoma
UO-31 renal = test system: UO-31 renal
HOP-92 NSCLC = test system: HOP-92 NSCLC
MALME-3M melanoma = test system: MALME-3M melanoma
OVCAR-5 ovarian = test system: OVCAR-5 ovarian
OVCAR-8 ovarian = test system: OVCAR-8 ovarian
SW-620 colon = test system: SW-620 colon
LXFL 529 NSCLC = test system: LXFL 529 NSCLC
UACC-62 melanoma = test system: UACC-62 melanoma
XF 498 CNS = test system: XF 498 CNS
KM20L2 colon = test system: KM20L2 colon
UACC-257 melanoma = test system: UACC-257 melanoma
SNB-75 CNS = test system: SNB-75 CNS
ACHN renal = test system: ACHN renal
CCRF-CEM leukemia = test system: CCRF-CEM leukemia
NCI-H226 lung = test system: NCI-H226 lung
SR leukemia = test system: SR leukemia
DMS 114 small cell lung = test system: DMS 114 small cell lung
SK-MEL-28 melanoma = test system: SK-MEL-28 melanoma
SF-539 CNS = test system: SF-539 CNS
SN12C renal = test system: SN12C renal
TK-10 renal = test system: TK-10 renal
M14 melanoma = test system: M14 melanoma
HCT-116 colon = test system: HCT-116 colon
SNB-78 CNS = test system: SNB-78 CNS
K-562 leukemia = test system: K-562 leukemia
M19-MEL melanoma = test system: M19-MEL melanoma
DLD-1 colon = test system: DLD-1 colon
HL-60(TB) leukemia = test system: HL-60(TB) leukemia
NCI-H522 lung = test system: NCI-H522 lung
SF-268 CNS = test system: SF-268 CNS
RPMI-8226 leukemia = test system: RPMI-8226 leukemia
OVCAR-4 ovarian = test system: OVCAR-4 ovarian
CAKI-1 renal = test system: CAKI-1 renal
SK-MEL-2 melanoma = test system: SK-MEL-2 melanoma
786-0 renal = test system: 786-0 renal
EKVX NSCLC = test system: EKVX NSCLC
SK-OV-3 ovarian = test system: SK-OV-3 ovarian
HT29 colon = test system: HT29 colon
SF-295 CNS = test system: SF-295 CNS
NCI-H460 lung = test system: NCI-H460 lung
U251 CNS = test system: U251 CNS
DMS 273 small cell lung = test system: DMS 273 small cell lung
A498 renal = test system: A498 renal
KM12 colon = test system: KM12 colon
HCT-15 colon = test system: HCT-15 colon
A549 NSCLC = test system: A549 NSCLC
HCC-2998 colon = test system: HCC-2998 colon
SNB-19 CNS = test system: SNB-19 CNS
SK-MEL-5 melanoma = test system: SK-MEL-5 melanoma
IGROV1 ovarian = test system: IGROV1 ovarian
NCI-H23 lung = test system: NCI-H23 lung
HOP-62 NSCLC = test system: HOP-62 NSCLC

## Oc1ccccc1-c1cnnc(-c2ccccc2O)c1
COLO 205 colon
  TGI: 41.7 µM
RXF 393 renal
  TGI: 56.5 µM
MOLT-4 leukemia
  TGI: 66.5 µM
OVCAR-3 ovarian
  TGI: 44.6 µM
HOP-18 NSCLC
  TGI: 96.6 µM
LOX IMVI melanoma
  TGI: 41 µM
UO-31 renal
  TGI: 44.3 µM
HOP-92 NSCLC
  TGI: 49.9 µM
MALME-3M melanoma
  TGI: 64.7 µM
OVCAR-5 ovarian
  TGI: 61.8 µM
OVCAR-8 ovarian
  TGI: 57.4 µM
SW-620 colon
  TGI: > 100 µM
LXFL 529 NSCLC
  TGI: 58.2 µM
UACC-62 melanoma
  TGI: 34 µM
XF 498 CNS
  TGI: 32.3 µM
KM20L2 colon
  TGI: 84.3 µM
UACC-257 melanoma
  TGI: 53.5 µM
SNB-75 CNS
  TGI: 51.6 µM
ACHN renal
  TGI: 83.5 µM
CCRF-CEM leukemia
  TGI: 36.5 µM
NCI-H226 lung
  TGI: 73.9 µM
SR leukemia
  TGI: 75.1 µM
DMS 114 small cell lung
  TGI: 38.3 µM
SK-MEL-28 melanoma
  TGI: 88.3 µM
SF-539 CNS
  TGI: 65.1 µM
SN12C renal
  TGI: > 100 µM
TK-10 renal
  TGI: > 100 µM
M14 melanoma
  TGI: 43.3 µM
HCT-116 colon
  TGI: 44.2 µM
SNB-78 CNS
  TGI: > 100 µM
K-562 leukemia
  TGI: > 100 µM
M19-MEL melanoma
  TGI: 61.8 µM
DLD-1 colon
  TGI: > 100 µM
HL-60(TB) leukemia
  TGI: 44.1 µM
NCI-H522 lung
  TGI: 41.3 µM
SF-268 CNS
  TGI: > 100 µM
RPMI-8226 leukemia
  TGI: 51.2 µM
OVCAR-4 ovarian
  TGI: > 100 µM
CAKI-1 renal
  TGI: 65.2 µM
SK-MEL-2 melanoma
  TGI: 43.6 µM
786-0 renal
  TGI: 36.6 µM
EKVX NSCLC
  TGI: 92.9 µM
SK-OV-3 ovarian
  TGI: 72.8 µM
HT29 colon
  TGI: 64.3 µM

## O=C1C2Cc3ccccc3CN2C(=O)N1CN1CCCCC1 (configuration not stated)
SF-295 CNS
  TGI: > 100 µM
COLO 205 colon
  TGI: > 100 µM
MOLT-4 leukemia
  TGI: > 100 µM
OVCAR-3 ovarian
  TGI: > 100 µM
LOX IMVI melanoma
  TGI: > 100 µM
UO-31 renal
  TGI: > 100 µM
NCI-H460 lung
  TGI: > 100 µM
U251 CNS
  TGI: > 100 µM
DMS 273 small cell lung
  TGI: > 100 µM
A498 renal
  TGI: > 100 µM
KM12 colon
  TGI: > 100 µM
MALME-3M melanoma
  TGI: > 100 µM
HCT-15 colon
  TGI: > 100 µM
A549 NSCLC
  TGI: > 100 µM
HCC-2998 colon
  TGI: > 100 µM
OVCAR-5 ovarian
  TGI: > 100 µM
OVCAR-8 ovarian
  TGI: > 100 µM
SW-620 colon
  TGI: > 100 µM
LXFL 529 NSCLC
  TGI: > 100 µM
UACC-62 melanoma
  TGI: > 100 µM
XF 498 CNS
  TGI: > 100 µM
KM20L2 colon
  TGI: > 100 µM
SNB-19 CNS
  TGI: > 100 µM
ACHN renal
  TGI: > 100 µM
SK-MEL-5 melanoma
  TGI: > 100 µM
CCRF-CEM leukemia
  TGI: > 100 µM
NCI-H226 lung
  TGI: > 100 µM
SR leukemia
  TGI: > 100 µM
DMS 114 small cell lung
  TGI: > 100 µM
IGROV1 ovarian
  TGI: > 100 µM
SK-MEL-28 melanoma
  TGI: > 100 µM
SF-539 CNS
  TGI: > 100 µM
SN12C renal
  TGI: > 100 µM
TK-10 renal
  TGI: > 100 µM
M14 melanoma
  TGI: > 100 µM
NCI-H23 lung
  TGI: > 100 µM
HOP-62 NSCLC
  TGI: > 100 µM
K-562 leukemia
  TGI: > 100 µM
M19-MEL melanoma
  TGI: > 100 µM
DLD-1 colon
  TGI: > 100 µM
HL-60(TB) leukemia
  TGI: 88.3 µM
NCI-H522 lung
  TGI: > 100 µM
SF-268 CNS
  TGI: > 100 µM
RPMI-8226 leukemia
  TGI: > 100 µM
OVCAR-4 ovarian
  TGI: > 100 µM
CAKI-1 renal
  TGI: > 100 µM
SK-MEL-2 melanoma
  TGI: > 100 µM
786-0 renal
  TGI: > 100 µM

Source: PubChem BioAssay (NCI)
